{"source": "patent US20130243732A1", "about": "“ABROGATING PROINFLAMMATORY CYTOKINE PRODUCTION DURING ONCOLYTIC REOVIRUS THERAPY” ([…] INC., priority 2008, published 2013)", "key": {"[1]": {"system": "subcutaneous B16.F10 tumors in C57Bl/6 mice or K1735 tumors in C3H mice", "assay": "In vivo tumor growth and survival, i.t. RV and i.p. CP alone or in combination", "parameters": "species or system mouse", "details": "treated days 1 and 4, tumor model not stated", "method": "C57Bl/6 (FIGS. 1A and 1C) and C3H (FIGS. 1B and 1D) mice bearing subcutaneous B16.F10 and K1735 tumors, respectively, were treated on days 1 and 4 with either reovirus alone via intratumoral (i.t.) injection (squares), cisplatin alone via intraperitoneal (i.p.) administration (triangles), or reovirus and cisplatin in combination (circles). Control treated mice (diamonds) received PBS. Tumors were measured on the days indicated and tumor volume expressed as tumor volume relative to volume at commencement of treatment (FIGS. 1A and 1B). Mice were euthanized when tumors exceeded 15 mm in any one dimension. Survival is expressed as Kaplan-Myer plots (FIGS. 1C and 1D).\n(§1) For in vivo evaluation, subcutaneous B16.F10 tumors in C57Bl/6 mice or K1735 tumors in C3H mice were treated with intratumoral (i.t.) RV and intraperitoneal (i.p.) CP either alone or in combination. Tumor volume was estimated thrice weekly. […] Tumors were measured on the days indicated and tumor volume expressed as tumor volume relative to volume at commencement of treatment (FIGS. 1A and 1B). […] Survival is expressed as Kaplan-Myer plots (FIGS. 1C and 1D). […] In contrast live virus was detected in only 50% of tumors from combination treated mice but in the liver of 4/6 mice."}, "[2]": {"system": "neutralizing anti-reovirus antibody (NARA)", "assay": "Neutralising anti-reovirus antibody (NARA) response in serum", "type": "in vivo, mouse", "details": "CP used in combination with RV", "method": "FIG. 2 is a graph showing the neutralizing anti-reovirus antibody (NARA) response after no treatment (control) or treatment with reovirus, cisplatin or the combination of reovirus and cisplatin.\nFor in vivo evaluation, subcutaneous B16.F10 tumors in C57Bl/6 mice or K1735 tumors in C3H mice were treated with intratumoral (i.t.) RV and intraperitoneal (i.p.) CP either alone or in combination. Tumor volume was estimated thrice weekly. Tumors and organs were harvested post-treatment for viral retrieval and histology; serum samples were tested for cytokine production and induction of neutralising anti-reovirus antibody (NARA). […] C57Bl/6 (FIGS. 1A and 1C) and C3H (FIGS. 1B and 1D) mice bearing subcutaneous B16.F10 and K1735 tumors respectively were treated on days 1 and 4 with either reovirus alone i.t. (squares), cisplatin alone i.p. (triangles), or reovirus and cisplatin in combination (circles). Control treated mice (diamonds) received PBS. Tumors were measured on the days indicated and tumor volume expressed as tumor volume relative to volume at commencement of treatment (FIGS. 1A and 1B). Mice were euthanized when tumors exceeded 15 mm in any one dimension. Survival is expressed as Kaplan-Myer plots (FIGS. 1C and 1D). […] In contrast live virus was detected in only 50% of tumors from combination treated mice but in the liver of 4/6 mice."}, "[3]": {"system": "proinflammatory cytokines (IL-1I, IL-3, IL-6, IL-12, IL-17, MIP-1I, RANTES)", "assay": "Pro-inflammatory cytokine production in serum", "type": "in vivo, mouse", "details": "CP used in combination with RV", "method": "FIGS. 3A, 3B, 3C, 3D, 3E, 3F, and 3G are graphs showing pro-inflammatory cytokine response is abrogated by cisplatin. The response of IL-1I (FIG. 3A), IL-3 (FIG. 3B), IL-6 (FIG. 3C), IL-12 (FIG. 3D), IL-17 (FIG. 3E), MIP-1I (FIG. 3F) and RANTES (FIG. 3G) were measured after no treatment (control) or treatment with reovirus, cisplatin or the combination of reovirus and cisplatin.\nas §1, with “weekly. Tumors and organs were harvested post-treatment for viral retrieval and histology; serum samples were tested for cytokine production and induction of neutralising anti-reovirus antibody (NARA).” for “weekly.”"}}}
{"smiles": "N.N.[Cl][Pt][Cl]", "note": "[CP, cisplatin]", "values": [{"measurement": "Mean relative tumor volumes ±SD", "setting": "[1]; day 12, volume relative to commencement of treatment", "value": "9.87±2.80"}, {"measurement": "Median survival", "setting": "[1]; euthanized when tumors exceeded 15 mm", "value": 8, "unit": "days"}, {"measurement": "neutralizing anti-reovirus antibody (NARA) response to RV", "setting": "[2]", "value": "did not affect"}, {"measurement": "production of proinflammatory cytokines to RV", "setting": "[3]", "value": "marked attenuation"}]}
